This passage reports IC50 results from US11046688B2, “Inhibitor compounds” (Cancer Research Technology Limited, priority 2012, dated 2021).

The structures appear in SMILES notation.

The target of the assay is full length MPS1 (Homo sapiens (Human), UniProt P33981). The assay can be described thus: Measurement of Inhibition of MPS1 Kinase (Caliper EZ reader, fluorescent labelled peptide H236). The settings on record: full length MPS1 12.5 nM or 3 nM, H236 peptide 5 μM, ATP 10 μM, 60 min at room temperature. In kind it is biochemical. The protocol: The reaction was carried out for 60 min at room temperature and stopped by the addition of buffer (10 μl) containing 20 mM EDTA, 0.05% (v/v) Brij-35, in 0.1M HEPES-buffered saline (Free acid, Sigma. UK). The plate was read on a Caliper EZ reader II (Caliper Life Sciences).
full length MPS1, sequence (P33981 whole entry): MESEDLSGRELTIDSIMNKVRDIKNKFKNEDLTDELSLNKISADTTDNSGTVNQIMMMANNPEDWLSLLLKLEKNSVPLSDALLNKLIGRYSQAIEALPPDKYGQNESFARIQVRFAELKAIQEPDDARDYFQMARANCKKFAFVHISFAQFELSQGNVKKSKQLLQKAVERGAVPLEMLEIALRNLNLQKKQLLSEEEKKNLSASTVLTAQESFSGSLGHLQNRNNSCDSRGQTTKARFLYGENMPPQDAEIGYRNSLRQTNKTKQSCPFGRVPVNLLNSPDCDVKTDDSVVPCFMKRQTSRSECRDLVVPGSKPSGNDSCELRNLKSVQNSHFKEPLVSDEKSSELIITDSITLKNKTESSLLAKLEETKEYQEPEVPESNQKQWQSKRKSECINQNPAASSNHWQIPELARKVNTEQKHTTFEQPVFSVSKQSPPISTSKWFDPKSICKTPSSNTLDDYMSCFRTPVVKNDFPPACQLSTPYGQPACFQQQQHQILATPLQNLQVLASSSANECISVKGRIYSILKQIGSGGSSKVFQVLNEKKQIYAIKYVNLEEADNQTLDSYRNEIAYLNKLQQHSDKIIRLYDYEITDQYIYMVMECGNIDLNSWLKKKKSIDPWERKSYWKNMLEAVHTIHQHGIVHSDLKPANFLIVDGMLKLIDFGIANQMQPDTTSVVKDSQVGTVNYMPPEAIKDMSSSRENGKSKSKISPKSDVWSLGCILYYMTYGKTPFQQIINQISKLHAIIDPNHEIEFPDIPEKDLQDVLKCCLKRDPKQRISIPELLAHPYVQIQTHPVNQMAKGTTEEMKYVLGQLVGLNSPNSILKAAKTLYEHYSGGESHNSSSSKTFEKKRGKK
The % inhibition of the compounds is calculated relative to the means of selected control wells. […] The % inhibitions at each concentration are then fitted to a 4 parameter logistic fit: y=(a+((b−a)/(1+((c/x^d)))) where a=asym min, b=asym max, c=IC50 and d=hill coefficient

As usually defined, the IC50 is the midpoint of a concentration-inhibition curve. A low value points to inhibition by little substance. For the compound `COc1cc(-c2cn(C)nc2C)ccc1Nc1ncc2ccnc(NCC(C)(C)C)c2n1` [Example 48, N2-(4-(1,3-dimethyl-1H-pyrazol-4-yl)-2-methoxyphenyl)-N8-neopentylpyrido[3,4-d]pyrimidine-2,8-diamine], the half-maximal inhibitory concentration (IC50) turned out to be 5 nM.

In turn, `COc1cc(-c2cnn(C)c2C)ccc1Nc1ncc2ccnc(NCC(C)(C)C)c2n1` [Example 49, N2-(4-(1,5-dimethyl-1H-pyrazol-4-yl)-2-methoxyphenyl)-N8-neopentylpyrido[3,4-d]pyrimidine-2,8-diamine] returned a 50% inhibitory concentration (IC50) of 5 nM.

For `COc1cc(-c2cnn(C)c2)ccc1Nc1ncc2c(C)cnc(NCC(C)(C)C)c2n1` [Example 149, N^2-(2-methoxy-4-(1-methyl-1H-pyrazol-4-yl)phenyl)-5-methyl-N^8-neopentylpyrido[3,4-d]pyrimidine-2,8-diamine], the IC50 stood at 34 nM.

In the case of `COc1nc(-c2nnnn2C)ccc1Nc1ncc2ccnc(NCC(C)(C)OC)c2n1` [Example 161, N^8-(2-Methoxy-2-methylpropyl)-N^2-(2-methoxy-6-(1-methyl-1H-tetrazol-5-yl)pyridin-3-yl)pyrido[3,4-d]pyrimidine-2,8-diamine], 31 nM corresponded to half-maximal inhibition (IC50).
